Assay results as given in ChEMBL document CHEMBL3112468, “δ-Thiolactones as prodrugs of thiol-based glutamate carboxypeptidase II (GCPII) inhibitors” (J Med Chem, 2014).
Calls of active or inactive are those of the source. The rule behind the calls is not given here.

Legend:
Liver microsome [1] = experiment: Prodrug conversion in rat liver microsomes assessed as 2-MPPA formation at 10 uM by LC/MS/MS analysis; assay type: ADME; settings: TDE = time-dependent effect
Liver microsome [2] = experiment: Prodrug conversion in rat liver microsomes at 10 uM after 1.5 hrs by LC/MS/MS analysis; assay type: ADME
[3] = Prodrug conversion in simulated gastric fluid at pH 1.2 after 48 hrs by HPLC analysis; assay type: ADME; settings: simulated gi fluid, pH 1.2, 48 h
[4] = target: Glutamate carboxypeptidase 2 (Homo sapiens, UniProt Q04609); experiment: Inhibition of human recombinant GCP2 using N-acetyl-L-aspartyl[3H]-L-glutamate as substrate
Chain of Glutamate carboxypeptidase 2 (Q04609 whole entry): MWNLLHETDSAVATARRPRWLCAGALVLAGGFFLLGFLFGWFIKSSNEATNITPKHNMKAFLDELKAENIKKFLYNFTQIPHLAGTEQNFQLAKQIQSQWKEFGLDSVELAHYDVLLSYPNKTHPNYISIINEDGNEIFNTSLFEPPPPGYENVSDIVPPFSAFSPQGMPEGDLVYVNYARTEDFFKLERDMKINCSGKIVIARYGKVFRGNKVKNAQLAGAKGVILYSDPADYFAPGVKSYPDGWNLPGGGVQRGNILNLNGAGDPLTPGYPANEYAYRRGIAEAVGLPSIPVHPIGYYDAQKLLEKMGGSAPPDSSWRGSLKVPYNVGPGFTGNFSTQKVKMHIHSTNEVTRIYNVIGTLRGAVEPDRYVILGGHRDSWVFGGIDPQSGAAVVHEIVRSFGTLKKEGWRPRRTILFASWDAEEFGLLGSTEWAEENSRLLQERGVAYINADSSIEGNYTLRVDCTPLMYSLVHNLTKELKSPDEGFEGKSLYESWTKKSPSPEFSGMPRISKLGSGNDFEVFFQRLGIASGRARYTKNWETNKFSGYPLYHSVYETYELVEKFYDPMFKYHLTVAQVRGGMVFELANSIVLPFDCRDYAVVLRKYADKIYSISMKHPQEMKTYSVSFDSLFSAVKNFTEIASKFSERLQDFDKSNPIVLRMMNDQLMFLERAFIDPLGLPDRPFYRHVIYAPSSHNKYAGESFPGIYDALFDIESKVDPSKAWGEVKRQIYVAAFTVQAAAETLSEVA

Plasma = experiment: Prodrug conversion in rat plasma assessed as 2-MPPA formation at 10 mg/kg, po after 0.25 to 3 hrs; assay type: ADME, organism-based; design: dose 10 mg/kg, route oral; settings: in vivo
Rattus norvegicus = experiment: Antinociceptive effect in rat chronic constriction injury model of neuropathic pain assessed as reduction of CCI-induced thermal hyperalgesia at 10 mg/kg/day, po after 11 to 18 days relative to vehicle-treated control; assay type: functional, organism-based

O=C(O)CCC(CCCS)C(=O)O (stereo not drawn)
Activity (Liver microsome [1]): tde

O=C(O)c1cccc(-c2cccc3c2C(=O)SCC3)c1
Stability (Liver microsome [2]): Stable | Stability [3]: Stable | IC50 [4]: 20 µM

O=C(O)CCC1CCCSC1=O (racemic)
Drug metabolism (Plasma): Active | Activity (Rattus norvegicus): Active | Stability [3]: Stable | IC50 [4]: 2 µM
